Laboratory results taken from PMC12064818, “A general assay platform to study protein pharmacology using ligand-dependent structural dynamics” (Nature Communications, 2025).

Columns and labels:
[1] = target: T1, ABL1-N-HiBiT kinase domain (Homo sapiens, UniProt P00519); experiment: SDR assay, ABL1-N-HiBiT; conditions: ABL1, SDR; heatmap data, 128 kinase inhibitors
T1 sequence (P00519 233-500): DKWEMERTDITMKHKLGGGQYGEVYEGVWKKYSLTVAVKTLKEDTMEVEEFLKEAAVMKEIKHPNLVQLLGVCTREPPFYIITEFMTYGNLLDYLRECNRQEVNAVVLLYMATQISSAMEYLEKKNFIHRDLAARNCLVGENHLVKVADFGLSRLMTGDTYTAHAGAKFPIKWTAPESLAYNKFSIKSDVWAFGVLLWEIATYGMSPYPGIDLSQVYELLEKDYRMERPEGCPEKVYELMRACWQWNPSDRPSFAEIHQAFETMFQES

PKA-N-HiBiT = PKA-N-HiBiT (Homo sapiens, UniProt P17612); experiment: SDR assay, PKA-N-HiBiT

Cc1ccccc1-n1c(C(C)Nc2nc(N)nc3nc[nH]c23)nc2cccc(C)c2c1=O.Cl (stereo not drawn) [CAL-130 HCl]
ABL1 SDR pSDR50 [1]: 5.40

Cc1n[nH]c2ccc(-c3cncc(OC[C@@H](N)Cc4c[nH]c5ccccc45)c3)cc12 [Compound A-443654]
PKA SDR Assay Mean (pSDR50) (PKA-N-HiBiT; without ATP): 6.76

Cc1cccc(C)c1-n1c(=O)c2cnc(Nc3ccc(N4CCN(C)CC4)cc3)nc2n2c3ccccc3nc12 [Lck Inhibitor]
EC50 (PKA-N-HiBiT): 4.57 µM
